Reference: patent US20110207689A1, “THE TREATMENT OF HEARING LOSS” (Auckland UniServices Limited, priority 2008, published 2011)

Test system: rats exposed to 8-12 kHz band noise for 24 hours at 110 dB SPL
Experiment: ABR threshold recovery after prolonged (24 hours) noise exposure, systemic ADAC (Experiment 1)
Format: in vivo, Wistar rats
Settings: for recovery of ABR thresholds: 24 h noise 110 dB SPL
Experimental: In Experiments 1 and 2, Wistar rats were exposed to noise (8-12 kHz, 110 dB SPL for 2-24 hours). ADAC was then administered to the Wistar rats at 100 μg/kg/day. The ADAC was either administered as a single injection 6 hours after noise exposure, or as a single injection 24 hours after noise exposure, or as multiple injections, with the first injection of the multiple injections being administered 6 hours after noise exposure.
Hearing thresholds were assessed using auditory brainstem responses (ABRs) and the cellular damage was evaluated by quantitative histology (hair cell loss). ABR represents the activity of the auditory nerve and the central auditory pathways (brainstem/mid-brain regions) responding to the sound (clicks or pure tones). Nitrotyrosine marker was used for the immunohistochemical assessment of free radical damage.
Adenosine amine congener (ADAC) was obtained from Dr Ken Jacobson (NIH, Bethesda, USA). ADAC ([…]) was dissolved first in 100 μL of 1N HCl and then in 50 ml of 0.1 M PBS (pH 7.4), making a 50 μg/mL stock solution. This solution was aliquoted at 1 mL in eppendorf tubes, and stored at −20° C. for later use. When required, the ADAC aliquots were heated in a 37° C. water bath for 30 minutes before administration. ADAC injection dose was […] given intraperitoneally, 200 μl/100 g body weight.
The rats were exposed to 8-12 kHz band noise presented for 24 hours at 110 dB SPL. This was done in a custom built acoustic chamber (Shelburg Acoustics, Sydney, Australia) with internal speakers and external controls (sound generator and frequency selector). Sound intensity inside the chamber was tested using a calibrated Rion NL-40 sound level meter to ensure minimal deviations of sound intensity (110±1 dB SPL). Up to 4 rats were placed in the chamber in a standard rat cage. They were introduced to the sound chamber at 1 hour intervals so that the timing of subsequent ABRs could be kept consistent for all rats.
ABR represents the activity of the auditory nerve and the central auditory pathways (brainstem/mid-brain regions) responding to the sound (clicks or pure tones). ABRs were obtained by placing fine platinum electrodes subdermally at the mastoid region of the ear of interest (active electrode), scalp vertex (reference) and mastoid region of the opposite ear (ground electrode). A series of auditory clicks or pure tones (4-28 kHz) presented at varying intensity and thresholds generate electrical activity reflecting differing levels of auditory processing. The sound threshold of the ABR complex (waves I-IV) were determined by progressively attenuating the sound intensity until the waveform can no longer be observed.
The acoustic stimuli for ABR were produced and the responses recorded using a Tucker-Davis Technologies auditory physiology workstation (Alachua, Fla., USA).
All ABR measurements were performed in a sound attenuator chamber (Shelburg Acoustics, Sydney, Australia). Rats were anaesthetised with the mixture of Ketamine (75 mg/kg) and Xylazine (10 mg/kg) intraperitoneally, and then placed onto a heating pad, to maintain body temperature at 37° C. ABR potentials were evoked with digitally produced 5 ms tone pips (0.5 ms rise-fall time) at frequencies between 4 and 28 kHz in half-octave steps. Sound pressure level (SPL) was raised in 5 dB steps starting from 10 dB below threshold level to 90 dB SPL. Responses were averaged at each sound level (1024 repeats with stimulus polarity alternated), and response waveforms were discarded when peak-to-peak amplitude exceeded 15 μV. The ABR threshold was defined as the lowest intensity (to the nearest 5 dB) at which a response could be visually detected above the noise floor.
ABR thresholds were measured before and after noise exposure, and after ADAC/vehicle treatment. Post-noise ABR recordings were obtained 1 hour before the rats received their first ADAC or vehicle injection. […]

## NCCNC(=O)Cc1ccc(NC(=O)Cc2ccc(Nc3ncnc4c3ncn4[C@@H]3O[C@H](CO)[C@@H](O)[C@H]3O)cc2)cc1 [ADAC, adenosine amine congener]
ADAC administration 24 hours after noise exposure, FIG. 3
  effect on threshold recovery: less pronounced
Chronic treatment (5 days, five injections every 24 hours commencing 6 hours post-noise), 100 μg/kg i.p.
  recovery of ABR thresholds at all pure tone frequencies: 22-28 dB
Group that received multiple injections of ADAC (FIGS. 4 and 5), follows sentence on auditory clicks
  highest recovery of ABR thresholds (mean ± SEM): 29 dB
Prolonged ADAC treatment (5 injections), FIG. 4
  best recovery of hearing thresholds: < 25 dB
Single ADAC injection 24 hours after noise exposure (FIGS. 3 and 5), follows sentence on auditory clicks
  lowest recovery of ABR thresholds (mean ± SEM): 8±2 dB
Single injection ADAC 100 μg/kg i.p. 24 hours after noise exposure
  recovery of ABR thresholds: 5-12 dB
Single injection ADAC 100 μg/kg i.p., early treatment 6 hours after noise
  recovery of ABR thresholds: 17-26 dB
Single injection of ADAC 6 hours after noise exposure, pure tones and auditory clicks, p<0.05, p<0.01
  threshold recovery versus control group: statistically significant difference between the groups in the level of recovery
